Experimental data as given in patent US11046722B2, “Sulphated disaccharides for the treatment of neuropathic pain” (BIOIBERICA, S.A.U., priority 2017, dated 2021).

What was measured:
[1] = system: mechanical allodynia due to diabetes induced by injecting streptozotocin; assay: Diabetic allodynia induced by streptozotocin injection (von Frey, 50% pain threshold); assay type: in vivo, mice; details: streptozotocin 60 mg/Kg i.p. for five days, day 25, 45 minutes after administration
Excerpt: In Example 5 an experimental trial is described of mechanical allodynia in diabetic mice induced by intraperitoneal streptozotocin injection, based on the model described in the article by Courteix et al., Streptozotocin-induced diabetic rats: behavioural evidence for a model of chronic pain, Pain, 1993, 81-88. This model is based on causing a mechanical allodynia in mice by inducing diabetes by means of intraperitoneal streptozotocin injection. It is observed that the administration of different doses of compound Ic is effective in reversing the allodynia induced by diabetes, as quantified by the statistically significant increase observed in the treated animals, of the threshold force that is necessary to apply in order to produce paw withdrawal in the animals (FIG. 7). […] For the evaluation of the effect of the Ic compound on the allodynia induced in this manner by diabetes, five groups of animals were used with at least 7 animals in each group, and the allodynia was quantified using von Frey filaments, according to the force threshold necessary to cause the animal's paw's withdrawal. Compound Ic was administered orally to the animals by gavage, in a single administration and allodynia was measured in each animal immediately before the administration and 45 minutes after the administration. […]

[2] = system: allodynia induced in mice by injecting paclitaxel; assay: Neuropathic pain induced by chemotherapy (paclitaxel): reversal by a single dose after induction; assay type: in vivo; details: paclitaxel 2 mg/Kg i.p. for 5 days, day 10, single oral dose, increasing doses 7.5, 15 and 30 mg/Kg, 45 minutes after administration
Method: In Example 3 an experimental model is used in mice based on inducing allodynia by intraperitoneal injection of paclitaxel, as described in the articles by Smith et al., Paclitaxel-induced neuropathic hypersensitivity in mice: responses in 10 inbred mouse strains, Life Sci., 2014, 2593-2604 and Palomano et al., Chemotherapy-evoked painful peripheral neuropathy, Pain Med., 2001, 2 (1), 8-14. In alternative trials, compound Ic was administered after allodynia induction by paclitaxel, or it was administered jointly with this chemotherapy medication. It is observed that compound Ic is effective at both reversing the allodynia induced by paclitaxel (FIG. 4), and preventing the development thereof when coadministered with paclitaxel (FIG. 5).
In this test, groups of mice between 7 and 12 animals were used, to which a daily dose of paclitaxel of 2 mg/Kg was administered by intraperitoneal route for 5 consecutive days (except for the control group). The evaluation of the induced mechanical allodynia was carried out on the 10th day after the first paclitaxel injection, and was quantified by using the von Frey filaments, according to the force threshold necessary to cause the paw withdrawal of the animal. […]

CO[C@H]1O[C@H](COS(=O)(=O)[O-])[C@@H](OS(=O)(=O)[O-])[C@H](O[C@@H]2O[C@H](C(=O)[O-])[C@@H](O)[C@H](O)[C@H]2O)[C@H]1NC(C)=O.[Na+].[Na+].[Na+] [Compound Ic, methyl 2-acetamido-2-desoxi-3-O-(β-D-glucopyranosyluronic acid)-4,6-di-O-sulfo-α-D-glucopyranoside trisodium salt]
reversal of the allodynia induced by diabetes ([1]; 10 mg/kg single oral dose by gavage): effective at reversing the allodynia | reversal of the allodynia induced by diabetes ([1]; 30 mg/kg single oral dose by gavage, differences statistically significant): effective at reversing the allodynia | reversal of paclitaxel-induced allodynia [2]: reversed the paclitaxel-induced allodynia
